Results reported in patent publication US10336721B2, “Biaryltriazole inhibitors of macrophage migration inhibitory factor” (YALE UNIVERSITY, priority 2015, dated 2019).
pKi: −log10 of the molar value. Values after ≈ are worked out from the molar mass of the structure shown.

Key:
[1] = molecular target: T1, human MIF (Homo sapiens (Human), UniProt P14174); experiment: X-ray crystallography of complexes with human MIF; type: binding
Protocol: The solution was centrifuged at 13,000×g to remove precipitated compound and used to set up hanging-drop crystallization experiments. A reservoir of 2.0 M ammonium sulfate, 0.1 M Tris pH 7, and 3% isopropanol was added to the protein solution in a 1:1 ratio and stored at 20° C. Diffraction-quality crystals with a rod morphology grew within two weeks. The crystals were cryo-protected in 25% glycerol, 2.0M ammonium sulfate, 0.1 M Tris pH 7, and 3% isopropanol. Data was collected at the Advanced Photon Source remotely on the NE-CAT 24-ID-E beam line. […] Crystals were obtained by the hanging-drop method at 20° C. A reservoir of 2.2 M ammonium sulfate, 0.1 M Tris pH 7, and 3% isopropanol mixed in a 1:1 ratio with rhMIF (16 mg/mL) was used to produce 2 μL drops. […] Crystals were cryo-protected with 25% glycerol, 2.2 M ammonium sulfate, 0.1 M Tris pH 7, and 3% isopropanol. […] HKL2000 was used to index, integrate, and scale the MIF-3a data set in the […] space group and the MIF-3b in the P212121 space group. Phases were obtained by molecular replacement with PDB file 3U18 using the CCP4 and PHASER programs. Model building was performed in COOT with iterative restrained refinement with REFMAC.

[2] = molecular target: T1, human MIF; experiment: Inhibition of tautomerase activity of human MIF (HPP substrate); type: biochemical; conditions: MIF tautomerase, HPP substrate, 50 nM MIF
[3] = Aqueous solubility; type: physicochemical; conditions: aqueous solvent (not further specified), μg compound/mL solvent

Structure (SMILES)	binding site from X-ray crystal structure of complex [1]	pKi [2]	solubility [3]
Oc1ccc(-n2cc(-c3ccc4ccccc4n3)nn2)cc1 [Example 3a, 4-(4-(quinolin-2-yl)-1H-1,2,3-triazol-1-yl)phenol]	confirm the binding of these inhibitors in the tautomerase active site	–	–
COCCOc1ccc2nc(-c3cn(-c4ccc(O)cc4)nn3)ccc2c1 [Example 3b, 4-(4-(6-(2-methoxyethoxy)quinolin-2-yl)-1H-1,2,3-triazol-1-yl)phenol]	confirm the binding of these inhibitors in the tautomerase active site	–	–
Oc1ccc(-n2cc(-c3ccc4cc(OCCOCCN5CCOCC5)ccc4n3)nn2)cc1 [Example 3v, 4-(4-(6-(2-(2-morpholinoethoxy)ethoxy)quinolin-2-yl)-1H-1,2,3-triazol-1-yl)phenol]	confirm the binding of these inhibitors in the tautomerase active site	–	–
O=C(O)COCCOc1ccc2nc(-c3cn(-c4ccc(O)c(F)c4)nn3)ccc2c1 [Example 44, 2-(2-((2-(1-(3-Fluoro-4-hydroxyphenyl)-1H-1,2,3-triazol-4-yl)quinolin-6-yl)oxy)ethoxy)acetic acid]	–	7.35	867 µg/mL (≈ 2040 µM)
O=C(O)COc1ccc2nc(-c3cn(-c4ccc(O)cc4)nn3)ccc2c1 [Example 45]	–	–	364 µg/mL (≈ 1010 µM)
